Patent US20230114728A1 (Venatorx Pharmaceuticals, Inc., priority 2019, published 2023)
In brackets after ≈: the same amount, converted by molar mass.

How the values were obtained:
Assay in all cases: Liquid broth MIC in Fastidious broth
Format in all cases: cell-based
N. gonorrhoeae WHO Q = conditions: Neisseria gonorrhoeae, read-out: Minimum Inhibitory Concentration, N. gonorrhoeae WHO Q
In short: (§1)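 Mosaic-PBP2 strains grown 24 h on chocolate agar (36 °C, 5% CO2), then direct-suspended in saline and OD600-adjusted. Twofold compound dilutions in Fastidious broth inoculated at 5×10^5 CFU/mL and incubated ~24 h at 36 °C, 5% CO2. MIC read visually as lowest concentration with <10% growth versus full-growth wells.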

N. gonorrhoeae WHO L = conditions: Neisseria gonorrhoeae; N. gonorrhoeae strain WHO L; Fastidious broth; read-out: Minimum Inhibitory Concentration, N. gonorrhoeae WHO L
In short: (§2)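 Colonies were swabbed from chocolate agar after 24 h growth and standardised by optical density at 600 nm. Compounds were serially diluted twofold in Fastidious broth, and bacteria added to give 5×10^5 CFU/mL. After about 24 h at 36 °C in 5% CO2, the lowest concentration allowing under 10% growth was taken as MIC.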

[1] = test system: N. gonorrhoeae ATCC 49226; conditions: Neisseria gonorrhoeae, ATCC49226; N. gonorrhoeae strain ATCC 49226; Fastidious broth; read-out: Minimum Inhibitory Concentration, N. gonorrhoeae ATCC 49226
In short: as §2

N. gonorrhoeae WHO G = conditions: Neisseria gonorrhoeae; N. gonorrhoeae strain WHO G; Fastidious broth; read-out: Minimum Inhibitory Concentration, N. gonorrhoeae WHO G
In short: as §2

N. gonorrhoeae FA1090 = conditions: Neisseria gonorrhoeae; N. gonorrhoeae strain FA1090; Fastidious broth; read-out: Minimum Inhibitory Concentration, N. gonorrhoeae FA1090
In short: as §2

N. gonorrhoeae WHO Z = conditions: Neisseria gonorrhoeae, read-out: Minimum Inhibitory Concentration, N. gonorrhoeae WHO Z
In short: as §1

N. gonorrhoeae H041 = conditions: Neisseria gonorrhoeae, H041, read-out: Minimum Inhibitory Concentration, N. gonorrhoeae H041
In short: as §1

N. gonorrhoeae WHO K = conditions: Neisseria gonorrhoeae, read-out: Minimum Inhibitory Concentration, N. gonorrhoeae WHO K
In short: as §1

SMILES	MIC (N. gonorrhoeae WHO Q) [µg/mL]	MIC (N. gonorrhoeae WHO L) [µg/mL]	MIC [1] [µg/mL]	MIC (N. gonorrhoeae WHO G) [µg/mL]	MIC (N. gonorrhoeae FA1090) [µg/mL]	MIC (N. gonorrhoeae WHO Z) [µg/mL]	MIC (N. gonorrhoeae H041) [µg/mL]	MIC (N. gonorrhoeae WHO K) [µg/mL]
NCCN1CCN(C(=O)N[C@@H](C(=O)N[C@H]2Cc3cccc(C(=O)O)c3OB2O)c2c(O)cc(O)cc2F)C(=O)C1=O (single isomer, unassigned) [Example 194]	> 64	> 64	16 to 32 (≈ 27.9 to 55.8 µM)	4 to 8 (≈ 6.98 to 14 µM)	1 to 2 (≈ 1.74 to 3.49 µM)	> 64	> 64	> 64
NCCN1CCN(C(=O)N[C@@H](C(=O)N[C@H]2Cc3cccc(C(=O)O)c3OB2O)c2ccc(O)c(Cl)c2F)C(=O)C1=O (single isomer, unassigned) [Example 186]	> 64	> 64	16 to 32 (≈ 27 to 54.1 µM)	4 to 8 (≈ 6.76 to 13.5 µM)	0.25 to 0.5 (≈ 0.422 to 0.845 µM)	> 64	> 64	> 64
NCCCN1CCN(C(=O)N[C@@H](C(=O)N[C@H]2Cc3cccc(C(=O)O)c3OB2O)c2c(O)cc(O)cc2F)C(=O)C1=O (single isomer, unassigned) [Example 195]	> 64	> 64	16 to 32 (≈ 27.2 to 54.5 µM)	4 to 8 (≈ 6.81 to 13.6 µM)	1 to 2 (≈ 1.7 to 3.41 µM)	> 64	> 64	> 64
CCN1CCN(C(=O)NC(C(=O)N[C@H]2Cc3cccc(C(=O)O)c3OB2O)c2ccc(C(=O)O)c(O)c2)C(=O)C1=O (stereo partly drawn) [Example 196, (3R)-3-(2-(4-carboxy-3-hydroxyphenyl)-2-(4-ethyl-2,3-dioxopiperazine-1-carboxamido)acetamido)-2-hydroxy-3,4-dihydro-2H-benzo[e][1,2]oxaborinine-8-carboxylic acid]	4 to 8 (≈ 7.04 to 14.1 µM)	16 to 32 (≈ 28.2 to 56.3 µM)	4 to 8 (≈ 7.04 to 14.1 µM)	1 to 2 (≈ 1.76 to 3.52 µM)	0.25 to 0.5 (≈ 0.44 to 0.88 µM)	4 to 8 (≈ 7.04 to 14.1 µM)	16 to 32 (≈ 28.2 to 56.3 µM)	4 to 8 (≈ 7.04 to 14.1 µM)
O=C(O)c1cccc2c1OB(O)[C@@H](NC(=O)C(NC(=O)N1CCN(CC3CNC3)C(=O)C1=O)c1c(F)cc(O)cc1F)C2 (stereo partly drawn) [Example 193, (3R)-3-(2-(4-(azetidin-3-ylmethyl)-2,3-dioxopiperazine-1-carboxamido)-2-(2,6-difluoro-4-hydroxyphenyl)acetamido)-2-hydroxy-3,4-dihydro-2H-benzo[e][1,2]oxaborinine-8-carboxylic acid]	> 64	> 64	> 64	16 to 32 (≈ 26.6 to 53.2 µM)	1 to 2 (≈ 1.66 to 3.33 µM)	> 64	> 64	> 64
NCCN1CCN(C(=O)N[C@H](C(=O)N[C@H]2Cc3cccc(C(=O)O)c3OB2O)c2ccc(O)c(Cl)c2F)C(=O)C1=O (single isomer, unassigned) [Example 187]	> 64	> 64	> 64	> 64	4 to 8 (≈ 6.76 to 13.5 µM)	> 64	> 64	> 64
CCN1CCN(C(=O)NC(C(=O)N[C@H]2Cc3cccc(C(=O)O)c3OB2O)c2cc(NS(N)(=O)=O)ccc2F)C(=O)C1=O (stereo partly drawn) [Example 197, (3R)-3-(2-(4-ethyl-2,3-dioxopiperazine-1-carboxamido)-2-(2-fluoro-5-(sulfamoylamino)phenyl)acetamido)-2-hydroxy-3,4-dihydro-2H-benzo[e][1,2]oxaborinine-8-carboxylic acid]	16 to 32 (≈ 25.8 to 51.6 µM)	> 64	16 to 32 (≈ 25.8 to 51.6 µM)	4 to 8 (≈ 6.45 to 12.9 µM)	0.25 to 0.5 (≈ 0.403 to 0.806 µM)	16 to 32 (≈ 25.8 to 51.6 µM)	16 to 32 (≈ 25.8 to 51.6 µM)	16 to 32 (≈ 25.8 to 51.6 µM)
CCN1CCN(C(=O)NC(C(=O)N[C@H]2Cc3ccc(F)c(C(=O)O)c3OB2O)c2ncc(C(=O)O)cc2F)C(=O)C1=O (stereo partly drawn) [Example 33, 6-(2-(((R)-8-carboxy-7-fluoro-2-hydroxy-3,4-dihydro-2H-benzo[e][1,2]oxaborinin-3-yl)amino)-1-(4-ethyl-2,3-dioxopiperazine-1-carboxamido)-2-oxoethyl)-5-fluoronicotinic acid]	–	> 64	16 to 32 (≈ 27.2 to 54.3 µM)	16 to 32 (≈ 27.2 to 54.3 µM)	4 to 8 (≈ 6.79 to 13.6 µM)	–	> 64	> 64
